Experiments:
[1] = target: Beta-3 adrenergic receptor (Homo sapiens, UniProt P13945); assay: DRUGMATRIX: Adrenergic beta3 radioligand binding (ligand: [125I] Cyanopindolol); assay type: cell membranes, HEK293, Membrane; settings: hek293; Not Active = under 50% inhibition at 10 µM
[2] = target: T1, Alpha-2C adrenergic receptor (Homo sapiens, UniProt P18825); assay: DRUGMATRIX: Adrenergic Alpha-2C radioligand binding (ligand: [3H] MK-912); assay type: cell membranes, Sf9, Membrane; settings: sf9
T1 sequence (P18825 whole entry): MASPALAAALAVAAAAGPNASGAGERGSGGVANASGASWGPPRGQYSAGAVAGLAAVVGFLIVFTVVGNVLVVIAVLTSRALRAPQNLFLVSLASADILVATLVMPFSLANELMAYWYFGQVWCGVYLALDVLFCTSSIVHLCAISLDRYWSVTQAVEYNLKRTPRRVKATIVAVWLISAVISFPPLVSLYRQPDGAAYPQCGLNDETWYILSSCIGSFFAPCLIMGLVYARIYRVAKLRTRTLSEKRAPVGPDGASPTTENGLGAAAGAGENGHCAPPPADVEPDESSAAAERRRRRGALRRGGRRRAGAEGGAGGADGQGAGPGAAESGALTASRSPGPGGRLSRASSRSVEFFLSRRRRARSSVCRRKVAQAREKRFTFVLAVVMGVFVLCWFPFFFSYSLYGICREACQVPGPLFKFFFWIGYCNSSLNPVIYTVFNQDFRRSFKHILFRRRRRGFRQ

[3] = DRUGMATRIX: Imidazoline I2, Central radioligand binding (ligand: [3H] Idazoxan); assay type: cell membranes, Rattus norvegicus, Wistar, Cerebral cortex, Membrane; settings: Not Active = under 50% inhibition at 10 µM
[4] = target: T2, C-C chemokine receptor type 4 (Homo sapiens, UniProt P51679); assay type: cell membranes, Membrane; settings: chem-1; also: in other assays of this panel Not Active means under 50% inhibition at 10 µM
T2 sequence (P51679 whole entry): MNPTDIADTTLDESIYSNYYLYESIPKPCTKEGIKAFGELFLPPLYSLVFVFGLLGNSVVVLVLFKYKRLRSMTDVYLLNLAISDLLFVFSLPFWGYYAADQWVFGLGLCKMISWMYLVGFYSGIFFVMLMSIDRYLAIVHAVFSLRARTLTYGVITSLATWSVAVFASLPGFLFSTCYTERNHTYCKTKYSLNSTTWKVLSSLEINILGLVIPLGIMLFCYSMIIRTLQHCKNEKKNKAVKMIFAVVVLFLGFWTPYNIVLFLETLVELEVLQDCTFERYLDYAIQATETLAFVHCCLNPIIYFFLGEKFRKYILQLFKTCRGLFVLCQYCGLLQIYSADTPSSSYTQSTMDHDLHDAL

Carbonic anhydrase 2 = Carbonic anhydrase 2 (Homo sapiens, UniProt P00918); assay: DRUGMATRIX: Carbonic Anhydrase II enzyme inhibition (substrate: 4-Nitrophenyl acetate (4-NPA)); assay type: tissue-based, Erythrocyte; settings: erythrocyte; Not Active = under 50% inhibition at 10 µM
Adenosine receptor A1 = target: T3, Adenosine receptor A1 (Homo sapiens, UniProt P30542); assay type: cell membranes, CHO, Membrane; settings: cho;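 also: radioligand binding assay at the adenosine A1 receptor, with DPCPX serving as the labelled ligand; in other assays of this panel Not Active means under 50% inhibition at 10 µM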
T3 sequence (P30542 whole entry): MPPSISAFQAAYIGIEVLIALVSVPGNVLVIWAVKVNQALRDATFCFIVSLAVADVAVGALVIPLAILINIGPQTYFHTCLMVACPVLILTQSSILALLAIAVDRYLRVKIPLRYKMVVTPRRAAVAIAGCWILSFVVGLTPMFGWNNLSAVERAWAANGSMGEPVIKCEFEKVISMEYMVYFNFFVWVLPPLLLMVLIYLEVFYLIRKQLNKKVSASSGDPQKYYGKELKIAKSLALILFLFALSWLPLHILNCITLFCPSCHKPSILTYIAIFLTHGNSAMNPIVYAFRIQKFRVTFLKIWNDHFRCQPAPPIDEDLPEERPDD

Glucocorticoid receptor = target: T4, Glucocorticoid receptor (Homo sapiens, UniProt P04150); settings: hela s3; also: in other assays of this panel Not Active means under 50% inhibition at 10 µM
T4 sequence (P04150 whole entry): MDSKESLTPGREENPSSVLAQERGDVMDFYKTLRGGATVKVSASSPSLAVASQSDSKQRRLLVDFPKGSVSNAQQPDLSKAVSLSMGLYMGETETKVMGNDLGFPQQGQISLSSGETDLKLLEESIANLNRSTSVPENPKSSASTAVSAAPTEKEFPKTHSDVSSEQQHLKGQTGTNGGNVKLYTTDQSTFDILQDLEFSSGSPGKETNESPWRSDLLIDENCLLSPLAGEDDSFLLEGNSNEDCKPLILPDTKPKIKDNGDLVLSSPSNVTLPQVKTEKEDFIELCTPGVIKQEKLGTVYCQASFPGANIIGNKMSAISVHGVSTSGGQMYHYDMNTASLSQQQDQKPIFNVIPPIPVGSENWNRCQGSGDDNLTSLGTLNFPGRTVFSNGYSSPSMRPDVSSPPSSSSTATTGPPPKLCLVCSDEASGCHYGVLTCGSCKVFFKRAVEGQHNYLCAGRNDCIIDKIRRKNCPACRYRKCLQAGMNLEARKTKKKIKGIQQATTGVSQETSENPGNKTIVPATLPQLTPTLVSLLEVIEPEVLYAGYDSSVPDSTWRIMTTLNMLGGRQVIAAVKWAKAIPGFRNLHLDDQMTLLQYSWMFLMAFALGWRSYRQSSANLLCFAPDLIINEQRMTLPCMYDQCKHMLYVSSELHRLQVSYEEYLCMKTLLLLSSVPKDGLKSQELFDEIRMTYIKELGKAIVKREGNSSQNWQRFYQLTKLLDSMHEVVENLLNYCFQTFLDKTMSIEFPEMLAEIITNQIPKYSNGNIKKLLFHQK

[5] = target: Beta-1 adrenergic receptor (Homo sapiens, UniProt P08588); assay: DRUGMATRIX: Adrenergic beta1 radioligand binding (ligand: [125I] Cyanopindolol); assay type: cell membranes, CHO-K1, Membrane; settings: cho-k1; Not Active = under 50% inhibition at 10 µM
Sequence of Beta-1 adrenergic receptor (P08588 whole entry): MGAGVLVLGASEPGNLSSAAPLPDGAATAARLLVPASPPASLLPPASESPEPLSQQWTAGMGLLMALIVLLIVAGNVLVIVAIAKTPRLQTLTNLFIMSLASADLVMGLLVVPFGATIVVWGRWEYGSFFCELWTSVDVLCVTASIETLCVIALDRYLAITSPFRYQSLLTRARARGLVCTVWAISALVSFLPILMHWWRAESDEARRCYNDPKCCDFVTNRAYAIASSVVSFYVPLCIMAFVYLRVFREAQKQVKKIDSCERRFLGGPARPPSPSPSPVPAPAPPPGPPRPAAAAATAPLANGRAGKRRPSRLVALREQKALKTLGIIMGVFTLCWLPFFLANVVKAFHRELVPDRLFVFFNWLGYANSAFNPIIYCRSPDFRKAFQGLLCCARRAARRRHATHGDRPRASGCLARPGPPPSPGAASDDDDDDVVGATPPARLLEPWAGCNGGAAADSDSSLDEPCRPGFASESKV

[6] = target: 5-hydroxytryptamine receptor 6 (Homo sapiens, UniProt P50406); assay type: cell membranes, HeLa, Membrane; settings: hela; also: in other assays of this panel Not Active means under 50% inhibition at 10 µM
Sequence of 5-hydroxytryptamine receptor 6 (P50406 whole entry): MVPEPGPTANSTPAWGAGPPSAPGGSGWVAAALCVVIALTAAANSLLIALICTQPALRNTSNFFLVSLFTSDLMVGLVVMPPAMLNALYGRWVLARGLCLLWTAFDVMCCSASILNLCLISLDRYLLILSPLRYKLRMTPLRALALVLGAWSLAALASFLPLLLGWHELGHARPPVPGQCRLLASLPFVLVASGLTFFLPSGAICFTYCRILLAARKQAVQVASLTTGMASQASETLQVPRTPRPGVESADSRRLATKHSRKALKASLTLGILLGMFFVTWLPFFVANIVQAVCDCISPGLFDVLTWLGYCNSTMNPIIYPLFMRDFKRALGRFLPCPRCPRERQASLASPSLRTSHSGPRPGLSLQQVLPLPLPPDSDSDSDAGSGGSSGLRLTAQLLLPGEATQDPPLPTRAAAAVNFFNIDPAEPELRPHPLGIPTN

Glycine receptor = Glycine receptor (Rattus norvegicus, UniProt P22771+P24524+P07727+P20781); assay type: cell membranes, Wistar, Spinal cord, Membrane; also: in other assays of this panel Not Active means under 50% inhibition at 10 µM
[7] = target: C-C chemokine receptor type 5 (Homo sapiens, UniProt P51681); assay type: cell membranes, Membrane; settings: hek293; also: in other assays of this panel Not Active means under 50% inhibition at 10 µM
Sequence of C-C chemokine receptor type 5 (P51681 whole entry): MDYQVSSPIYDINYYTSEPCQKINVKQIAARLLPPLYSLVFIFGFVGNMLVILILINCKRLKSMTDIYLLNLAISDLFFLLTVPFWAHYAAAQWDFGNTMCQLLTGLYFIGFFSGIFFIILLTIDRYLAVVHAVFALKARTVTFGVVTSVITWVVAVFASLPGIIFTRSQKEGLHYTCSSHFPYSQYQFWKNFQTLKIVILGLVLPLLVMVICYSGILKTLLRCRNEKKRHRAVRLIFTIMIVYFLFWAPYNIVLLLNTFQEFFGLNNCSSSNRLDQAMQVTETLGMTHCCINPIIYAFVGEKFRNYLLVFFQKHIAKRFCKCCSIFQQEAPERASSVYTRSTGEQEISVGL

[8] = DRUGMATRIX: Calcium Channel Type L, Dihydropyridine radioligand binding (ligand: [3H] Nitrendipine); assay type: cell membranes, Rattus norvegicus, Wistar, Cerebral cortex, Membrane; settings: Not Active = under 50% inhibition at 10 µM

Sequence of Beta-3 adrenergic receptor (P13945 whole entry): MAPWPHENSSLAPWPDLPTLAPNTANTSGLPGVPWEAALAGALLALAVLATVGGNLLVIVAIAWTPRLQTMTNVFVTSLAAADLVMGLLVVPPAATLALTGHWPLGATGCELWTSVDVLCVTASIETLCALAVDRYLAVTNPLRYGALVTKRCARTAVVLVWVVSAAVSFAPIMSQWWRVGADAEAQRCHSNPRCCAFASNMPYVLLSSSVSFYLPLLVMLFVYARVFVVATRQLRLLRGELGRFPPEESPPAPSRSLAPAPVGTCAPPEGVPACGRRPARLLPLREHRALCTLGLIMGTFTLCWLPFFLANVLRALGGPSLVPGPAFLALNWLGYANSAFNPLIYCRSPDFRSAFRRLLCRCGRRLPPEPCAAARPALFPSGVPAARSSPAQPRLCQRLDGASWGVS

O=C1OCCN1/N=C/c1ccc([N+](=O)[O-])o1 [FURAZOLIDONE]
Not Active: IC50 [1] | IC50 [2] | IC50 [3] | Ki [3] | IC50 [4] | IC50 (Carbonic anhydrase 2) | IC50 (Adenosine receptor A1) | IC50 (Glucocorticoid receptor) | IC50 [5] | IC50 [6] | IC50 (Glycine receptor) | IC50 [7] | IC50 [8] | Ki [8]

NCC1(CC(=O)O)CCCCC1 [GABAPENTIN]
Not Active: IC50 [1] | IC50 [2] | IC50 [3] | Ki [3] | IC50 [4] | IC50 (Carbonic anhydrase 2) | IC50 (Adenosine receptor A1) | IC50 (Glucocorticoid receptor) | IC50 [5] | IC50 [6] | IC50 (Glycine receptor) | IC50 [7] | IC50 [8] | Ki [8]

CC[N+](CC)(CC)CCOc1cccc(OCC[N+](CC)(CC)CC)c1OCC[N+](CC)(CC)CC.[I-].[I-].[I-] [GALLAMINE TRIETHIODIDE]
Not Active: IC50 [1] | IC50 [2] | IC50 [3] | Ki [3] | IC50 [4] | IC50 (Carbonic anhydrase 2) | IC50 (Adenosine receptor A1) | IC50 (Glucocorticoid receptor) | IC50 [5] | IC50 [6] | IC50 (Glycine receptor) | IC50 [7] | IC50 [8] | Ki [8]

Nc1nc2c(ncn2COC(CO)CO)c(=O)[nH]1 [GANCICLOVIR]
Not Active: IC50 [1] | IC50 [2] | IC50 [3] | Ki [3] | IC50 [4] | IC50 (Carbonic anhydrase 2) | IC50 (Adenosine receptor A1) | IC50 (Glucocorticoid receptor) | IC50 [5] | IC50 [6] | IC50 (Glycine receptor) | IC50 [7] | IC50 [8] | Ki [8]

COc1c(N2CCNC(C)C2)c(F)cc2c(=O)c(C(=O)O)cn(C3CC3)c12 (centres undefined) [GATIFLOXACIN]
Not Active: IC50 [1] | IC50 [2] | IC50 [3] | Ki [3] | IC50 [4] | IC50 (Carbonic anhydrase 2) | IC50 (Adenosine receptor A1) | IC50 (Glucocorticoid receptor) | IC50 [5] | IC50 [6] | IC50 (Glycine receptor) | IC50 [7] | IC50 [8] | Ki [8]

NCC(=O)O [GLYCINE]
Not Active: IC50 [1] | IC50 [2] | IC50 [3] | Ki [3] | IC50 [4] | IC50 (Carbonic anhydrase 2) | IC50 (Adenosine receptor A1) | IC50 (Glucocorticoid receptor) | IC50 [5] | IC50 [6] | IC50 (Glycine receptor) | IC50 [7] | IC50 [8] | Ki [8]

COC1=CC(=O)C[C@@H](C)[C@]12Oc1c(Cl)c(OC)cc(OC)c1C2=O [GRISEOFULVIN]
Not Active: IC50 [1] | IC50 [2] | IC50 [3] | Ki [3] | IC50 [4] | IC50 (Carbonic anhydrase 2) | IC50 (Adenosine receptor A1) | IC50 (Glucocorticoid receptor) | IC50 [5] | IC50 [6] | IC50 (Glycine receptor) | IC50 [7] | IC50 [8] | Ki [8]

C/C=C1\[C@H]2C=C(C)C[C@]1(N)c1ccc(=O)[nH]c1C2 [HUPERZINE A]
Not Active: IC50 [1] | IC50 [2] | IC50 [3] | Ki [3] | IC50 [4] | IC50 (Carbonic anhydrase 2) | IC50 (Adenosine receptor A1) | IC50 (Glucocorticoid receptor) | IC50 [5] | IC50 [6] | IC50 (Glycine receptor) | IC50 [7] | IC50 [8] | Ki [8]

NS(=O)(=O)c1cc2c(cc1Cl)NCNS2(=O)=O [HYDROCHLOROTHIAZIDE]
Not Active: IC50 [1] | IC50 [2] | IC50 [3] | Ki [3] | IC50 [4] | IC50 (Carbonic anhydrase 2) | IC50 (Adenosine receptor A1) | IC50 (Glucocorticoid receptor) | IC50 [5] | IC50 [6] | IC50 (Glycine receptor) | IC50 [7] | IC50 [8] | Ki [8]

O=P1(NCCCl)OCCCN1CCCl (centres undefined) [IFOSFAMIDE]
Not Active: IC50 [1] | IC50 [2] | IC50 [3] | Ki [3] | IC50 [4] | IC50 (Carbonic anhydrase 2) | IC50 (Adenosine receptor A1) | IC50 (Glucocorticoid receptor) | IC50 [5] | IC50 [6] | IC50 (Glycine receptor) | IC50 [7] | IC50 [8] | Ki [8]

O=C1CN=C(c2ccccc2)c2cc([N+](=O)[O-])ccc2N1 [NITRAZEPAM]
Not Active: IC50 [1] | IC50 [2] | IC50 [3] | Ki [3] | IC50 [4] | IC50 (Carbonic anhydrase 2) | IC50 (Adenosine receptor A1) | IC50 (Glucocorticoid receptor) | IC50 [5] | IC50 [6] | IC50 (Glycine receptor) | IC50 [7] | IC50 [8] | Ki [8]

From ChEMBL document CHEMBL1909046, “DrugMatrix in vitro pharmacology data”
